The text below walks through data of patent US20260091020A1, “TREATMENT OF ACUTE CANNABINOID OVERDOSE” (Anebulo Pharmaceuticals, Inc., priority 2022, published 2026).

For this assay, the system named is central nervous system effects of THC. The experiment in a line: Phase 2 randomized, double-blind, placebo-controlled THC challenge study, PD endpoints (10.5 mg THC + 50 or 100 mg Compound 1). In kind it is in vivo, human. Particulars: 10.5 mg THC alone (THC/placebo); score of at least 20/100 on VAS feeling high scale.

Consider `CCCCCc1cc(O)c2c(c1)OC(C)(C)[C@@H]1CCC(C)=C[C@@H]21` [THC, Δ9-tetrahydrocannabinol], for which the “Proportion of subjects reporting feeling high” value came out at 75%.
